Measurements reported in ChEMBL document CHEMBL1201862, “PubChem BioAssay data set” (2004).
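96-well plates; 48 h exposure; 5 concentrations. Endpoints by linear interpolation between flanking doses. Not reached: highest tested concentration assigned. Here, GI50 denotes the concentration required for 50% inhibition of growth.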 Active and inactive are the calls of the source. Cut-off read from the data, not from the text of the source: active = GI50 up to about 1.1 µM and inactive = higher.

Key:
Assay in all cases: inhibition of tumour cell growth, NCI panel, 48 h
U-251 = system: U-251
SNB-75 = system: SNB-75
SF-268 = system: SF-268
MDA-MB-231 = system: MDA-MB-231
SNB-19 = system: SNB-19
PC-3 = system: PC-3
HCT-116 = system: HCT-116
RXF 393 = system: RXF 393
KM12 = system: KM12
K562 = system: K562
SN12C = system: SN12C
MOLT-4 = system: MOLT-4
OVCAR-5 = system: OVCAR-5
HT-29 = system: HT-29
T47D = system: T47D
NCI-H23 = system: NCI-H23
NCI-H460 = system: NCI-H460
A498 = system: A498
OVCAR-8 = system: OVCAR-8
MCF7 = system: MCF7
BT-549 = system: BT-549
ACHN = system: ACHN
Malme-3M = system: Malme-3M
M14 = system: M14
SR = system: SR
SK-OV-3 = system: SK-OV-3
MDA-MB-435 = system: MDA-MB-435
CCRF-CEM = system: CCRF-CEM
UACC-257 = system: UACC-257
SK-MEL-5 = system: SK-MEL-5
Hs-578T = system: Hs-578T
UACC-62 = system: UACC-62
UO-31 = system: UO-31
SF-539 = system: SF-539
NCI-H522 = system: NCI-H522
HOP-62 = system: HOP-62
MDA-N = system: MDA-N
DU-145 = system: DU-145
NCI-H226 = system: NCI-H226
SF-295 = system: SF-295
HCT-15 = system: HCT-15
CAKI-1 = system: CAKI-1
EKVX = system: EKVX
SW-620 = system: SW-620
COLO 205 = system: COLO 205
HL-60 = system: HL-60
SK-MEL-28 = system: SK-MEL-28
RPMI-8226 = system: RPMI-8226
NCI/ADR-RES = system: NCI/ADR-RES
HOP-92 = system: HOP-92
786-0 = system: 786-0
HCC 2998 = system: HCC 2998
IGROV-1 = system: IGROV-1
OVCAR-3 = system: OVCAR-3
A549 = system: A549
OVCAR-4 = system: OVCAR-4
TK-10 = system: TK-10
LOX IMVI = system: LOX IMVI

Compound: O=C(Nc1noc(-c2ccccc2)n1)c1ccccc1CNc1noc(-c2ccccc2)n1
- GI50 (U-251): > 100 µM (inactive)
- GI50 (SNB-75): > 100 µM (inactive)
- GI50 (SF-268): > 100 µM (inactive)
- GI50 (MDA-MB-231): > 100 µM (inactive)
- GI50 (SNB-19): > 100 µM (inactive)
- GI50 (PC-3): > 100 µM (inactive)
- GI50 (HCT-116): > 100 µM (inactive)
- GI50 (RXF 393): > 100 µM (inactive)
- GI50 (KM12): > 100 µM (inactive)
- GI50 (K562): > 100 µM (inactive)
- GI50 (SN12C): > 100 µM (inactive)
- GI50 (MOLT-4): > 100 µM (inactive)
- GI50 (OVCAR-5): > 100 µM (inactive)
- GI50 (HT-29): > 100 µM (inactive)
- GI50 (T47D): > 100 µM (inactive)
- GI50 (NCI-H23): > 100 µM (inactive)
- GI50 (NCI-H460): > 100 µM (inactive)
- GI50 (A498): > 100 µM (inactive)
- GI50 (OVCAR-8): > 100 µM (inactive)
- GI50 (MCF7): > 100 µM (inactive)
- GI50 (BT-549): > 100 µM (inactive)
- GI50 (ACHN): > 100 µM (inactive)
- GI50 (Malme-3M): > 100 µM (inactive)
- GI50 (M14): > 100 µM (inactive)
- GI50 (SR): > 100 µM (inactive)
- GI50 (SK-OV-3): > 100 µM (inactive)
- GI50 (MDA-MB-435): > 100 µM (inactive)
- GI50 (CCRF-CEM): > 100 µM (inactive)
- GI50 (UACC-257): > 100 µM (inactive)
- GI50 (SK-MEL-5): > 100 µM (inactive)
- GI50 (Hs-578T): > 100 µM (inactive)
- GI50 (UACC-62): > 100 µM (inactive)
- GI50 (UO-31): > 100 µM (inactive)
- GI50 (SF-539): > 100 µM (inactive)
- GI50 (NCI-H522): > 100 µM (inactive)
- GI50 (HOP-62): > 100 µM (inactive)
- GI50 (MDA-N): > 100 µM (inactive)
- GI50 (DU-145): > 100 µM (inactive)
- GI50 (NCI-H226): > 100 µM (inactive)
- GI50 (SF-295): > 100 µM (inactive)
- GI50 (HCT-15): > 100 µM
- GI50 (CAKI-1): > 100 µM (inactive)
- GI50 (EKVX): 76.7 µM (inactive)
- GI50 (SW-620): > 100 µM (inactive)
- GI50 (COLO 205): > 100 µM (inactive)
- GI50 (HL-60): > 100 µM (inactive)
- GI50 (SK-MEL-28): > 100 µM (inactive)
- GI50 (RPMI-8226): > 100 µM (inactive)
- GI50 (NCI/ADR-RES): > 100 µM (inactive)
- GI50 (HOP-92): 62.8 µM (inactive)
- GI50 (786-0): > 100 µM (inactive)
- GI50 (HCC 2998): > 100 µM (inactive)
- GI50 (IGROV-1): > 100 µM (inactive)
- GI50 (OVCAR-3): > 100 µM (inactive)
- GI50 (A549): > 100 µM (inactive)
- GI50 (OVCAR-4): > 100 µM (inactive)
- GI50 (TK-10): > 100 µM (inactive)
- GI50 (LOX IMVI): > 100 µM (inactive)
